≈ marks a conversion by molar mass, not a printed value.
How the values were obtained:
[1] = test system: Mycobacterium tuberculosis; assay: Inhibition of N-terminal enterokinase-cleavable His-tagged full-length Mycobacterium tuberculosis Zmp1 expressed in Escherichia coli BL21(DE3) assessed as residual enzyme activity at 50 uM using MCA-Pro-Leu-Gly-Leu-Dpa-Ala-Arg-NH2 substrate by fluorometry
[2] = Inhibition of N-terminal enterokinase-cleavable His-tagged full-length Mycobacterium tuberculosis Zmp1 expressed in Escherichia coli BL21(DE3) assessed as reduction in enzyme activity at 50 uM using MCA-Pro-Leu-Gly-Leu-Dpa-Ala-Arg-NH2 substrate by fluorometry
[3] = Cytotoxicity against African green monkey Vero cells assessed as reduction in cell viability incubated for 72 hrs by MTT assay; assay type: cell-based; conditions: chlorocebus sabaeus
[4] = Cytotoxicity against human THP1 cells assessed as reduction in cell viability incubated for 72 hrs by MTT assay; assay type: cell-based; conditions: THP-1 cells
[5] = test system: Mycobacterium tuberculosis; assay: Antimycobacterial activity against Mycobacterium tuberculosis H37Ra ATCC […] assessed as reduction in bacterial growth incubated for 7 days by resazurin microtiter assay; assay type: functional; conditions: 168 h
[6] = test system: Mycobacterium tuberculosis; assay: Antimycobacterial activity against Mycobacterium tuberculosis infected in human THP1 cells assessed as inhibition of microbial growth by measuring colony forming units at 10 ug/ml incubated for 72 hrs followed by plating on Middlebrook 7H11 medium for 21 days; assay type: functional; conditions: THP-1, read-out: GI
[7] = test system: Mycobacterium tuberculosis; assay: Antimycobacterial activity against Mycobacterium tuberculosis infected in human THP1 cells assessed as inhibition of microbial growth by measuring colony forming units at 100 ug/ml incubated for 72 hrs followed by plating on Middlebrook 7H11 medium for 21 days; assay type: functional; conditions: THP-1, read-out: GI

| Structure (SMILES) | Activity [1] | IC50 [2] | other results |
| --- | --- | --- | --- |
| O=C(O)c1ccc(-c2csc(N[C@H](Cc3ccccc3)C(=O)O)n2)cc1 | 100% | – | – |
| COc1cccc(/C=C2\SC(=S)N([C@H](Cc3ccccc3)C(=O)O)C2=O)c1 | 10% | 18.4 µM | – |
| COC(=O)c1ccc(Cc2csc(N[C@H](Cc3ccccc3)C(=O)O)n2)cc1 | 61% | – | – |
| O=C(OCCc1ccccc1)c1ccc(/C=C2\SC(=S)N([C@H](Cc3ccccc3)C(=O)O)C2=O)cc1 | 58.7% | – | – |
| O=C(O)c1ccc(/C=C2\SC(=S)N([C@H](Cc3ccccc3)C(=O)O)C2=O)cc1 | – | 0.87 µM | CC50 at 72 h [3]: > 125 mg/L; CC50 at 72 h [4]: > 125 mg/L; MIC [5]: > 64 mg/L; inhibition of growth at 10 µg/mL [6]: 0.1%; inhibition of growth at 100 µg/mL [7]: 60% |
| O=C(O)[C@@H](Cc1ccccc1)N1C(=O)/C(=C/c2cccs2)SC1=S | 10.4% | 11.4 µM | – |
| O=C(O)c1ccc(/C=C2\SC(=S)N([C@@H](Cc3ccccc3)C(=O)O)C2=O)cc1 | – | – | CC50 at 72 h [3]: > 125 mg/L; CC50 at 72 h [4]: 115 mg/L (≈ 278 µM); MIC [5]: > 64 mg/L; inhibition of growth at 10 µg/mL [6]: 57.4%; inhibition of growth at 100 µg/mL [7]: 58.3% |
| C[C@H](C(=O)O)N1C(=O)/C(=C/c2cccc(C(=O)O)c2)SC1=S | 12.7% | 1.3 µM | – |
| N#Cc1ccc(/C=C2\SC(=S)N([C@H](Cc3ccccc3)C(=O)O)C2=O)cc1 | 7.1% | 6.6 µM | – |
| C[C@H](C(=O)O)N1C(=O)/C(=C/c2ccc(C(=O)O)cc2)SC1=S | 7.2% | 2.9 µM | – |
| COC(=O)c1cccc(/C=C2\SC(=S)N([C@H](Cc3ccccc3)C(=O)O)C2=O)c1 | 13.2% | 12.5 µM | CC50 at 72 h [3]: 32.5 mg/L (≈ 76 µM); CC50 at 72 h [4]: 21.9 mg/L (≈ 51.2 µM); MIC [5]: 64 mg/L (≈ 150 µM); inhibition of growth at 10 µg/mL [6]: 0.5% |
| COc1ccc(-c2csc(N[C@H](Cc3ccccc3)C(=O)O)n2)cc1 | 100% | – | – |
| O=C(OCc1ccccc1)c1cccc(/C=C2\SC(=S)N([C@H](Cc3ccccc3)C(=O)O)C2=O)c1 | 13.5% | 24 µM | CC50 at 72 h [3]: 23.2 mg/L (≈ 46.1 µM); CC50 at 72 h [4]: 11.2 mg/L (≈ 22.2 µM); MIC [5]: 64 mg/L (≈ 127 µM); inhibition of growth at 10 µg/mL [6]: 53.8% |
| O=C(O)CN1C(=O)/C(=C/c2ccc(C(=O)O)cc2)SC1=S | 10.3% | 3.9 µM | – |
| COC(=O)c1cccc(Cc2csc(N[C@H](Cc3ccccc3)C(=O)O)n2)c1 | 100% | – | – |
| COc1cccc(/C=C2\SC(=S)N(CC(=O)O)C2=O)c1 | 18.9% | 28.2 µM | – |
| O=C(O)c1ccc(Cc2csc(N[C@H](Cc3ccccc3)C(=O)O)n2)cc1 | 100% | – | – |
| COc1cccc(-c2csc(N[C@H](Cc3ccccc3)C(=O)O)n2)c1 | 91.9% | – | – |
| COc1cccc(Cc2csc(N[C@H](Cc3ccccc3)C(=O)O)n2)c1 | 100% | – | – |
| O=C(O)c1cccc(/C=C2\SC(=S)N([C@H](Cc3ccccc3)C(=O)O)C2=O)c1 | 13.4% | 9.3 µM | CC50 at 72 h [3]: > 125 mg/L; CC50 at 72 h [4]: 102 mg/L (≈ 246 µM); MIC [5]: > 64 mg/L; inhibition of growth at 10 µg/mL [6]: 23.4%; inhibition of growth at 100 µg/mL [7]: 54.5% |
| COc1ccc(/C=C2\SC(=S)N([C@H](Cc3ccccc3)C(=O)O)C2=O)cc1 | 12.3% | 20.4 µM | – |
| N#Cc1ccc(-c2csc(N[C@H](Cc3ccccc3)C(=O)O)n2)cc1 | 35% | 41.3 µM | – |
| COc1cccc(/C=C2\SC(=S)N([C@H](C)C(=O)O)C2=O)c1 | 12.6% | 23.4 µM | – |
| O=C(O)[C@@H](Cc1ccccc1)Nc1nc(Cc2ccccc2)cs1 | 100% | – | – |
| O=C(O)c1cccc(Cc2csc(N[C@H](Cc3ccccc3)C(=O)O)n2)c1 | 100% | – | – |
| O=C(O)[C@@H](Cc1ccccc1)N1C(=O)/C(=C/c2ccncc2)SC1=S | 19.1% | 26.9 µM | – |
| CC(C)COC(=O)c1ccc(/C=C2\SC(=S)N([C@H](Cc3ccccc3)C(=O)O)C2=O)cc1 | 28.1% | 43.9 µM | – |
| O=C(O)CN1C(=O)/C(=C/c2cccc(C(=O)O)c2)SC1=S | 11.2% | 15.7 µM | – |
| O=C(O)[C@@H](Cc1ccccc1)Nc1nc(-c2ccc([N+](=O)[O-])cc2)cs1 | 36.3% | 35.7 µM | – |
| O=C(O)c1cccc(-c2csc(N[C@H](Cc3ccccc3)C(=O)O)n2)c1 | 100% | – | – |

— ChEMBL document CHEMBL4184235, “Design, synthesis, SAR and biological investigation of 3-(carboxymethyl)rhodanine and aminothiazole inhibitors of Mycobacterium tuberculosis Zmp1” (Bioorg Med Chem Lett, 2018)
